Measurements published in ChEMBL document CHEMBL1201862, “PubChem BioAssay data set” (2004).
Activity calls are given as the source filed them.

What was measured:
[1] = target: T1, Short transient receptor potential channel 4 (Mus musculus, UniProt Q9QUQ5); assay: SAR Analysis for the identification of selective inhibits of the transient receptor potential cation channel C4 (TRPC4): Automated Electrophysiology. [Related pubchem assays (depositor defined):AID2256]; assay type: functional
T1 sequence (Q9QUQ5 whole entry): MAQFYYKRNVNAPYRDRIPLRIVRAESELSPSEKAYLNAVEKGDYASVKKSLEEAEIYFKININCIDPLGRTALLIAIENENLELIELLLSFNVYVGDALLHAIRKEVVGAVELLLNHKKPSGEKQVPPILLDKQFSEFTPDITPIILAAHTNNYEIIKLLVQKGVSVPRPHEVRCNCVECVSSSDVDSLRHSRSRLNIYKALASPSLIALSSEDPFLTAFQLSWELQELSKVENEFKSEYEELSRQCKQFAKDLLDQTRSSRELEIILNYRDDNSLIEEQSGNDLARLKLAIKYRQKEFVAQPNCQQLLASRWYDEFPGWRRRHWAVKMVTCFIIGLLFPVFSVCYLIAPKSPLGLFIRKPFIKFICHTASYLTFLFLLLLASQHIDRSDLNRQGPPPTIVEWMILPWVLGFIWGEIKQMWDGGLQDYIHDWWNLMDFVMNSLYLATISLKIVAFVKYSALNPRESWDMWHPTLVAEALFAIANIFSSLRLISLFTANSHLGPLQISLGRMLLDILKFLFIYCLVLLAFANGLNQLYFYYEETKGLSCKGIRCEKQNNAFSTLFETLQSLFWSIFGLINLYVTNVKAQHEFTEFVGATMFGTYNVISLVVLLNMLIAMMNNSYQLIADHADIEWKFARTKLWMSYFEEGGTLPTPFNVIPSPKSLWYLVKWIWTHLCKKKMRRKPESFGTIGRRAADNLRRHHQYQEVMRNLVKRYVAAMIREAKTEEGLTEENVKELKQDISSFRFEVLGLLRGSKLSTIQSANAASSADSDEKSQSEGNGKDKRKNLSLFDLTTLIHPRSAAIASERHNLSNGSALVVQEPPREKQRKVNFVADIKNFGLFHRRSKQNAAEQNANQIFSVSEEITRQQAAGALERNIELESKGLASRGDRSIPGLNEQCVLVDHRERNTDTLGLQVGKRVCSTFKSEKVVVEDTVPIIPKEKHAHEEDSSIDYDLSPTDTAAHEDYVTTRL

[2] = target: T1, Short transient receptor potential channel 4; assay: mouse TRPC4 block via Gq-coupled stimulation – cell-based, acetylcholine stimulus, HEK293 TRPC4, Fluo-4, SAR follow-up (AID 492996); assay type: functional
[3] = target: Short transient receptor potential channel 6 (Mus musculus, UniProt Q61143); assay: mouse TRPC6 channel blockers, concentration series – HEK293 cells, membrane potential dye, IC50, selectivity assay for selective TRPC4 inhibitor project, dose response (AID 492987); assay type: functional, cell-based
Short transient receptor potential channel 6, sequence (Q61143 whole entry): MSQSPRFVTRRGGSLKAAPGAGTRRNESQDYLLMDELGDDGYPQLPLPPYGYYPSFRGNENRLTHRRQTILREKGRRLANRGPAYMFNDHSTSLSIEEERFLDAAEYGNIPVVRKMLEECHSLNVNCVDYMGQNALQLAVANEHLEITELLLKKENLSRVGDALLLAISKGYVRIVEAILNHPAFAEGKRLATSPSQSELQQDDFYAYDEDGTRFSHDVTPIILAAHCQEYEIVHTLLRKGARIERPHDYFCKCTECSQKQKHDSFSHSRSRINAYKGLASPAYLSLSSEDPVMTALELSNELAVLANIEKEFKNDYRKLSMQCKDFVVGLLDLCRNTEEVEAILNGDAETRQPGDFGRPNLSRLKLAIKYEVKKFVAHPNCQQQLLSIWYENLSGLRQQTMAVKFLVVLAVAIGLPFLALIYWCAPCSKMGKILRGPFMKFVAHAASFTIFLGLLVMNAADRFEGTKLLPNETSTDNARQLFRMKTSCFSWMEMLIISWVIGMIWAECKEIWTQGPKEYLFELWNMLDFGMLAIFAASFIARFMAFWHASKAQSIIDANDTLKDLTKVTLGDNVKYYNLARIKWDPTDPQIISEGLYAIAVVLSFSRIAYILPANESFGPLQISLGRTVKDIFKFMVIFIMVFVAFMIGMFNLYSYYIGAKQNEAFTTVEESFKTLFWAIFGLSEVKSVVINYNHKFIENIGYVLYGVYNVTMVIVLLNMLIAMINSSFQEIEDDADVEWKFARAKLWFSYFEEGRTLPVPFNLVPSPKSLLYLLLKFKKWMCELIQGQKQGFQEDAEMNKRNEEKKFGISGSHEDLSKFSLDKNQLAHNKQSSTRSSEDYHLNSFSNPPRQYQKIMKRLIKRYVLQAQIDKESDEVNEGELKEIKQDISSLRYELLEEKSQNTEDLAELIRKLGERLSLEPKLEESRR

[4] = target: T1, Short transient receptor potential channel 4; assay: potency of mouse TRPC4 calcium flux blockers – cell-based, HEK293 TRPC4/mu-opioid, DAMGO stimulus, Fluo-4, dose response (AID 492994); assay type: functional
[5] = target: Cytochrome P450 2C19 (Homo sapiens, UniProt P33261); assay: Cytochrome panel assay with activity outcomes. Panel member name: p450-cyp2c19 Compounds with AC50 equal or less than 10 uM are considered active; assay type: functional
Cytochrome P450 2C19, sequence (P33261 whole entry): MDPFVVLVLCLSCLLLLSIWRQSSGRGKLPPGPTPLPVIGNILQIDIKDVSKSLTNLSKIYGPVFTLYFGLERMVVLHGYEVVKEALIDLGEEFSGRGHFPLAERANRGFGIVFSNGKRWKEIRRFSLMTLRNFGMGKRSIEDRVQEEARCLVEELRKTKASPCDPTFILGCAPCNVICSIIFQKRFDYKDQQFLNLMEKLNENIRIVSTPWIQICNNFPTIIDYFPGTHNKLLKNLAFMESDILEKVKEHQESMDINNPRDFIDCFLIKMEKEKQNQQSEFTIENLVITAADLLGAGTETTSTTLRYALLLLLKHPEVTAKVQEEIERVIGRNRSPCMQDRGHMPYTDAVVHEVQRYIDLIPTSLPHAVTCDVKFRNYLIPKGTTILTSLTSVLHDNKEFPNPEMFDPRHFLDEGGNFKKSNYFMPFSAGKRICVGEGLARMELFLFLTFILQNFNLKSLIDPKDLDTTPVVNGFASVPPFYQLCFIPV

[6] = target: Voltage-gated inwardly rectifying potassium channel KCNH2 (Homo sapiens, UniProt Q12809); conditions: Potency;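 also: confirmatory quantitative high-throughput screen measuring inhibition of hERG channel activity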
Voltage-gated inwardly rectifying potassium channel KCNH2, sequence (Q12809 whole entry): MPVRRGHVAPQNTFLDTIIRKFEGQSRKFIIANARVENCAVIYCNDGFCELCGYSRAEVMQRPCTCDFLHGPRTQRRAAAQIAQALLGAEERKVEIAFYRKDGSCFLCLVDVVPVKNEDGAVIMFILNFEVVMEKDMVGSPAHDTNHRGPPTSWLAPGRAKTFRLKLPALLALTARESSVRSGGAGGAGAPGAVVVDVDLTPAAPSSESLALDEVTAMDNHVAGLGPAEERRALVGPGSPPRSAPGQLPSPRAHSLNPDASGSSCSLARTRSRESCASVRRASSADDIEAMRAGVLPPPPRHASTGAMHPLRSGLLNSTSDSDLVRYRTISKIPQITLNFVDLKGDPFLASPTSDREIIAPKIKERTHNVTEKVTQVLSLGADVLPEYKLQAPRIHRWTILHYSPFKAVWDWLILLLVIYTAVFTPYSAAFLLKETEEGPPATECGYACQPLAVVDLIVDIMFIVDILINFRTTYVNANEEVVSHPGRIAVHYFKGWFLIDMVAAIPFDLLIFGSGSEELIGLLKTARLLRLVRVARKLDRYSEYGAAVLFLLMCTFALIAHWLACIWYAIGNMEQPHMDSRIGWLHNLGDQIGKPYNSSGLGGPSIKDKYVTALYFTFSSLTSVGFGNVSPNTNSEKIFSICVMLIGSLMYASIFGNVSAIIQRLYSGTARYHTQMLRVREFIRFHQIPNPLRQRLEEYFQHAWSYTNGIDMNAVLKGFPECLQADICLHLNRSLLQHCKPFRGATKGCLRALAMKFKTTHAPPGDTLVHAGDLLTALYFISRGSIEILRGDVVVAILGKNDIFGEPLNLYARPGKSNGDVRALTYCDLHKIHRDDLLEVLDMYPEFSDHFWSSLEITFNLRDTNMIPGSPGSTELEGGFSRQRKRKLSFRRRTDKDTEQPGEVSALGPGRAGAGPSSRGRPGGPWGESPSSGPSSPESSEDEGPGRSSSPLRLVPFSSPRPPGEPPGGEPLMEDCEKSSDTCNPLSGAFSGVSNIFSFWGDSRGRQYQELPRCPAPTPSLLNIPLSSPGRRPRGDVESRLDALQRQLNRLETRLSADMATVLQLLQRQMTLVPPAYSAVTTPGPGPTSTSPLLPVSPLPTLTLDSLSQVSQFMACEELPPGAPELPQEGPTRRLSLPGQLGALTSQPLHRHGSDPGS

[7] = system: BJ; assay: BJ-TERT fibroblast viability loss – cell-based, RAS-independent, luminescence, dose response (AID 1933); assay type: functional; conditions: Homo sapiens
[8] = system: BJ; assay: cells; assay type: functional, cell-based; conditions: Homo sapiens
[9] = system: BJ; assay: BJ-TERT-LT-ST fibroblast viability loss – cell-based, RAS-independent, luminescence, dose response (AID 1935); assay type: functional; conditions: Homo sapiens;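 also: BJ fibroblasts immortalized with TERT plus LT and ST oncogenes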
[10] = DRD fibroblast viability loss – cell-based, non-viral oncogenic, luminescence, dose response (AID 1934); assay type: functional; conditions: Homo sapiens
[11] = target: T2, Microphthalmia-associated transcription factor (Homo sapiens, UniProt O75030); assay: reducers of TRPM1 reporter luminescence, concentration series – cell-based, SK-MEL-5, cherry-picked, set 3, MITF inhibitor project, dose response (AID 493073); assay type: functional;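 also: SK-MEL-5 melanoma cells with luciferase driven by the MITF target TRPM1 promoter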
T2 sequence (O75030 whole entry): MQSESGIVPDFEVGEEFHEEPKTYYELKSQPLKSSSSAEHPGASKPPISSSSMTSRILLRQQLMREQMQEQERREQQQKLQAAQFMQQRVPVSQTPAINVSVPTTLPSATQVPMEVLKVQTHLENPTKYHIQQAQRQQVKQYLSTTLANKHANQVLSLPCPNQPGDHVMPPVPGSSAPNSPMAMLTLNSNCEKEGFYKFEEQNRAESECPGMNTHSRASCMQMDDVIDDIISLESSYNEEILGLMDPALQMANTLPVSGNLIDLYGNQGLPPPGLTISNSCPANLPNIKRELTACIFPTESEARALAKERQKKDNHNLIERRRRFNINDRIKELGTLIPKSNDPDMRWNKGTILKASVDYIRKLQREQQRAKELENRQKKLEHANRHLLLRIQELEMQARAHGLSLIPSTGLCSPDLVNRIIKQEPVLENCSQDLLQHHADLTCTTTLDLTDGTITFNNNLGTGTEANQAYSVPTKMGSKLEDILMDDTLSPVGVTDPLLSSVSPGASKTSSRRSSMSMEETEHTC

[12] = system: BJ; assay: growth inhibition of engineered Ras-driven BJ cells – cell-based, alamar blue fluorescence, cherrypicked samples, dose response (AID 2631); assay type: functional; conditions: Homo sapiens;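 also: confirmatory dose-response assay in RAS-dependent BJ fibroblasts engineered with TERT, LT and ST, with cytotoxicity read by fluorescence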
[13] = system: A-375; assay: proliferation inhibition in MITF-low A375 cells – cell-based, cherry-pick samples, set 2, counter-screen for MITF modulator project, dose response (AID 540335); assay type: functional; conditions: Homo sapiens
[14] = target: Latent membrane protein 1 (Human herpesvirus 4 (strain B95-8), UniProt P03230); assay: LMP1 TES1 pathway selectivity over dsRED control – imaging, HEK293T, dual-color eGFP/dsRED, cherry-picks, selectivity assay for LMP1 NF-kB inhibitor project, dose response (AID 588398); assay type: functional, cell-based
[15] = target: Beta-2 adrenergic receptor (Homo sapiens, UniProt P07550); assay: ADRB2 activation measured by internalization – cell-based, FAP fluorogen, flow cytometry, cherry pick 1, dose response (AID 588763); assay type: functional
Beta-2 adrenergic receptor, sequence (P07550 whole entry): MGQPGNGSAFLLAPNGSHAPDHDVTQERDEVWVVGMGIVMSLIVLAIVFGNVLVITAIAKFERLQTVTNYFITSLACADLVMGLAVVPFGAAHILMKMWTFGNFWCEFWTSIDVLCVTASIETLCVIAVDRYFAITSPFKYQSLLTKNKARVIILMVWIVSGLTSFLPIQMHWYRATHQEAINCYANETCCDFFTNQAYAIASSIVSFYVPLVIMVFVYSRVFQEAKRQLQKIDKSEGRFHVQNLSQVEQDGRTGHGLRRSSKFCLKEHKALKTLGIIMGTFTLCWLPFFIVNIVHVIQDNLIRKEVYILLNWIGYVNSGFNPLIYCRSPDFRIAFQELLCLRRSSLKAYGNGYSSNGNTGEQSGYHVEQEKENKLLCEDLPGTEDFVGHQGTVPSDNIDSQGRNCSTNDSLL

[16] = target: T3, CAAX prenyl protease 2 (Saccharomyces cerevisiae S288c, UniProt Q03530); assay type: biochemical
T3 sequence (Q03530 whole entry): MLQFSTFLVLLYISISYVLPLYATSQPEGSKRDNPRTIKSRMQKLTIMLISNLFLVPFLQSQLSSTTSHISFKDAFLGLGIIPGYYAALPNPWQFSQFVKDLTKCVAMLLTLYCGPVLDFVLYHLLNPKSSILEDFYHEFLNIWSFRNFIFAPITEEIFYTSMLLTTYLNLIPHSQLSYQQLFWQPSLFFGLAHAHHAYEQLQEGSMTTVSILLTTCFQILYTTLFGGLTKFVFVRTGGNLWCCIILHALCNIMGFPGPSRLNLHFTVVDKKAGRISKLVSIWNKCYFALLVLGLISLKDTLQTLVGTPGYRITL

[17] = target: T4, CAAX prenyl protease 2 (Homo sapiens, UniProt Q9Y256); assay: inhibition of Ras-converting CAAX endoprotease – biochemical, plate reader, dry powder samples, dose response (AID 588848)
T4 sequence (Q9Y256 whole entry): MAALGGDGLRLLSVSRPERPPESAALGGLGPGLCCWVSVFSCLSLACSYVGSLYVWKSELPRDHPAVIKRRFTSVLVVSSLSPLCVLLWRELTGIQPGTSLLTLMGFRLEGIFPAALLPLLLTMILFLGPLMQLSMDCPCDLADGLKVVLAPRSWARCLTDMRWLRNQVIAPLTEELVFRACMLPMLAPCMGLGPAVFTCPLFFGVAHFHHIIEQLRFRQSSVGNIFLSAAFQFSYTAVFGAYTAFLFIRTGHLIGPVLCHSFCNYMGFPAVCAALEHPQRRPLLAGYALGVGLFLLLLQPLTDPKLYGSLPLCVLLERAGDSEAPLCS

[18] = target: T3, CAAX prenyl protease 2; assay: inhibition of Rce1p peptide cleavage – biochemical, plate reader, dry powder retest, dose response (AID 588851)
[19] = target: T4, CAAX prenyl protease 2; assay: inhibition of Ras-converting CAAX protease Rce1 – biochemical, yeast membranes, quenched-peptide fluorescence, cherry-pick, dose response (AID 588849)
[20] = target: Phospholipase D1 (Homo sapiens, UniProt Q13393); assay: cellular phospholipase D1 inhibition IC50 – cell-based, dose response (AID 602151); assay type: functional;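 also: cellular PLD1 assay in Calu-1 cells stimulated with PMA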
[21] = target: Phospholipase D2 (Homo sapiens, UniProt O14939); assay: cellular phospholipase D2 inhibition IC50 – cell-based, dose response (AID 602147); assay type: functional;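 also: cellular assay in HEK293 cells overexpressing GFP-tagged PLD2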
Phospholipase D2, sequence (O14939 whole entry): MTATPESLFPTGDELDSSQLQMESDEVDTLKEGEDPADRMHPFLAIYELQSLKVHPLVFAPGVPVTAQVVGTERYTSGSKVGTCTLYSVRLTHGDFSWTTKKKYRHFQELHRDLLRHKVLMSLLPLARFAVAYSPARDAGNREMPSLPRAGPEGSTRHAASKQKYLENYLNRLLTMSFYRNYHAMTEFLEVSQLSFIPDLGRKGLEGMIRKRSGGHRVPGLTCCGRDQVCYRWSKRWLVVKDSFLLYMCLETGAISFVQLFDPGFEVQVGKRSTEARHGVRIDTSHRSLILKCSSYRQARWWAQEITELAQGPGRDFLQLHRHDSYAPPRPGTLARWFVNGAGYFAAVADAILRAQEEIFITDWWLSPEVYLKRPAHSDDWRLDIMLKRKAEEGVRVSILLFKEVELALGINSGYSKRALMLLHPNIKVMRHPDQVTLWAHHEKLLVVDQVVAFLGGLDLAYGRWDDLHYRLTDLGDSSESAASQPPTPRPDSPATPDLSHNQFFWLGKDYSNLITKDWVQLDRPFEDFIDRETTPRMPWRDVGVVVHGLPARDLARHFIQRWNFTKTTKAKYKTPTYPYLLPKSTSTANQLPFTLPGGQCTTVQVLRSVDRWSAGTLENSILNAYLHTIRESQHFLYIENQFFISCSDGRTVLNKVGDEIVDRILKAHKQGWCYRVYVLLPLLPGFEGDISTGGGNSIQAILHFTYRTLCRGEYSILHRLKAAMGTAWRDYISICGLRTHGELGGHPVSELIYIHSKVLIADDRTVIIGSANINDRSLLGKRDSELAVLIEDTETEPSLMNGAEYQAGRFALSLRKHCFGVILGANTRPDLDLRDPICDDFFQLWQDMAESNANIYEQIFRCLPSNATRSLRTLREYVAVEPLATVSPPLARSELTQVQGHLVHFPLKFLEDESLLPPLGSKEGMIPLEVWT

[22] = target: T5, Bcl-2-like protein 10 (Homo sapiens, UniProt Q9HD36); assay: Isothermal titration calorimetry (ITC) with Bcl-B and compounds active in primary screen. [Related pubchem assays (depositor defined):AID1693]; assay type: functional
T5 sequence (Q9HD36 whole entry): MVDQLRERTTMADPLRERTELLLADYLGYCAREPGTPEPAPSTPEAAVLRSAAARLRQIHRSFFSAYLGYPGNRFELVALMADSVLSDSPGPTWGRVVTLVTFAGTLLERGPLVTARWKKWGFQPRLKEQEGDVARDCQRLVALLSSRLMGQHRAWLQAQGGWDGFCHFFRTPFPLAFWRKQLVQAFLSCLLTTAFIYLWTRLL

[23] = target: Beta-adrenergic receptor kinase 1 (Homo sapiens, UniProt P25098); assay: aptamer displacement from bead-bound GRK2 – biochemical, cherry pick 1, bead flow cytometry, dose response (AID 504500)
Beta-adrenergic receptor kinase 1, sequence (P25098 whole entry, the tested form may be a part): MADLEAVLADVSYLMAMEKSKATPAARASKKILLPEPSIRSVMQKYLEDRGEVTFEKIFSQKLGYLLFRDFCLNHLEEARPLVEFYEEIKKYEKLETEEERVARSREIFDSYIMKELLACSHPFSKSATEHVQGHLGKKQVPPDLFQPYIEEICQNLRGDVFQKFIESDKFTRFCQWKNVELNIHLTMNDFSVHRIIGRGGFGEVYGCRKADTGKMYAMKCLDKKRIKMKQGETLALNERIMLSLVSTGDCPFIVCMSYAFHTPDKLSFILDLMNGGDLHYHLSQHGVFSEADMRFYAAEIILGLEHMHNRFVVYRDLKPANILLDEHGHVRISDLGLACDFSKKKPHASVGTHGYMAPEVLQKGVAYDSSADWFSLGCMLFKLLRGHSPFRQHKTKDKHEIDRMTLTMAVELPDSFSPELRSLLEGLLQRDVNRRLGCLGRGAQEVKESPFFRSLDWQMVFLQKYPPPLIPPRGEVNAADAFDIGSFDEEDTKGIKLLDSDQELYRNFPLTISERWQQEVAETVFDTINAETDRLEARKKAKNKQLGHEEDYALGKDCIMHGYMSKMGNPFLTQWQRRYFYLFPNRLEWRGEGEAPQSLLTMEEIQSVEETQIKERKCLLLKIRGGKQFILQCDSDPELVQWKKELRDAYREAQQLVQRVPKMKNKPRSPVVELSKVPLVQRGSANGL

[24] = target: T6, Carboxy-terminal domain RNA polymerase II polypeptide A small phosphatase 1 (Homo sapiens, UniProt Q9GZU7); assay: CTDSP1 inhibitors, concentration-response, biochemical, absorbance readout, ultra-high-throughput screen actives (AID 540297); assay type: functional
T6 sequence (Q9GZU7 whole entry): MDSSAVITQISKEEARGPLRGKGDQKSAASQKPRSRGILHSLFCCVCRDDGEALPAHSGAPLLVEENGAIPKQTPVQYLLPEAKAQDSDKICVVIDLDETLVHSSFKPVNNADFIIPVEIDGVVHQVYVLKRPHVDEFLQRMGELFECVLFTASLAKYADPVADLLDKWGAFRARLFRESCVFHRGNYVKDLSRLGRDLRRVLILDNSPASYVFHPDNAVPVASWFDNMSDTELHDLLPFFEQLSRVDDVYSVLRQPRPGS

[25] = target: DNA (cytosine-5)-methyltransferase 1 (Homo sapiens, UniProt P26358); assay: inhibition of DNA methylation by DNMT1 – biochemical, fluorescent molecular beacon, confirmation (AID 602386); assay type: functional
[26] = target: T7, Small ubiquitin-related modifier 1 (Homo sapiens, UniProt P63165); assay: SUMO1 protein interaction blockers, potency – biochemical, fluorescence polarization, uHTS hits, dose response (AID 624382); assay type: functional; conditions: read-out: IC50_Mean
T7 sequence (P63165 whole entry): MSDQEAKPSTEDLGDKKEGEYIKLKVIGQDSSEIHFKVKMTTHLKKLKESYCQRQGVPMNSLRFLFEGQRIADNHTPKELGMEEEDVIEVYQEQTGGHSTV

[27] = target: T7, Small ubiquitin-related modifier 1; assay: SUMO1 protein-protein binding blockers, potency – biochemical, FRET, dose response (AID 624383); assay type: functional; conditions: read-out: IC50_Mean
[28] = target: Luciferin 4-monooxygenase (Photinus pyralis, UniProt P08659); assay: inhibition of purified Photinus pyralis luciferase – biochemical, luminescence, dose response (AID 1891)
[29] = Luminescence Cell-Based Dose Confirmation HTS to Identify Inhibitors of Platelet Dense Granule Release. [Related pubchem assays: 1663 (Primary HTS), 1678 (Summary of Project)]; assay type: functional
[30] = PAR1 agonist-induced platelet activation inhibition – cell-based, fluorescence, flow cytometry, human platelets, dose response (AID 2511); assay type: functional
[31] = Fluorescence Cell-Based Dose Response to Identify Inhibitors of Thrombin Receptor-Activating Peptide SFLLRN-Mediated P-Selectin Induction on Platelets. [Related pubchem assays: 1663 (Primary HTS), 1889 (retest at dose ), 1891 (counterscreen), 1678 (Project Summary)]; assay type: functional
[32] = blockers of SFLLRN-triggered platelet ATP secretion – cell-based, human platelets, luminescence, dry powder, dose response (AID 493100); assay type: functional
[33] = Luminescence Cell-Based Dose Response Follow up to Identify Inhibitors of Platelet Dense Granule Release. [Related pubchem assays (depositor defined):AID1663, AID1678, AID2398]; assay type: functional
[34] = system: Escherichia coli; assay: microbe, parasite or virus in culture

Cc1cc(N2CCCC2)nc2ccccc12
IC50 [1]: 3.59 µM (active)
IC50 [2]: 39.1 µM (active)
IC50 [3]: 11.9 µM (active)
IC50 [4]: 1.84 µM (active)

Oc1cc(-c2ccccc2)nc2nc(Cl)ccc12
AC50 [5]: inconclusive
AC50 [6]: 35.5 µM (inconclusive)

N#CCc1ccc(NC(=O)/C=C/c2ccc([N+](=O)[O-])o2)cc1
EC50 [7]: 4.8 µM (active)
EC50 [8]: 3.87 µM (inconclusive)
EC50 [9]: 5.37 µM (inconclusive)
EC50 [10]: 3.12 µM (active)
AC50 [11]: 4.97 µM (active)
EC50 [12]: 1.41 µM (active)
AC50 [13]: 91.2 µM (active)

CC(=NNC(=S)N1CCCCC1)c1ccccn1
AC50 [14]: 4.29 µM (active)

CCOC(=O)c1ccc(N2C(=O)c3[nH]nc(-c4ccco4)c3C2c2cccc([N+](=O)[O-])c2)cc1 (centres undefined)
EC50 [15]: 0.571 µM (active)

CN(C(=O)COC(=O)c1cc([N+](=O)[O-])ccc1Sc1ccccc1)C1CCS(=O)(=O)C1 (centres undefined)
AC50 [16]: 0.55 µM (active)
AC50 [17]: 60.6 µM (active)
AC50 [18]: 4.85 µM (active)
AC50 [19]: 17.3 µM (active)

O=C(c1cnc2ccccc2c1)N1CCCC1CN1CCC(n2c(=O)[nH]c3ccccc32)CC1 (centres undefined)
IC50 [20]: 2.8 µM (active)
IC50 [21]: 3.75 µM (active)

Cc1ccc(C=NNC(=O)CSc2nnc(-c3ccc(Cl)cc3)n2-c2ccccc2)o1
IC50 [22]: 3.16 µM (active)

CCOC(=O)C(C)N1C(=O)S/C(=C\c2ccc(-c3ccccc3C(=O)O)o2)C1=O (centres undefined)
EC50 [23]: 3.05 µM (active)
IC50 [24]: 1.88 µM (active)
IC50 [25]: 6.76 µM (active)
IC50 [26]: > 66.6 µM (inactive)
IC50 [27]: 10.3 µM (active)

Cc1ccc(-n2c(N)c(C#N)c(-c3ccccc3)c(C#N)c2=O)cc1
EC50 [28]: > 112 µM (not active)
EC50 [29]: 3.22 µM (active)
EC50 [30]: < 3 µM (active)
EC50 [31]: < 0.3 µM (active)
AC50 [32]: 7.52 µM (active)
EC50 [33]: 0.36 µM (active)

CC1CCN(CC(=O)c2ccccc2Cl)CC1
AC50 [34]: 34.2 µM (active)
